Data published in publication PMC5218480 (PLoS ONE, 2017).

Test system: MV-4-11 cells
Experiment: Gene expression microarray analysis (Affymetrix PrimeView) and GSEA
Type: cell-based, human
Design: RFU PODN (11730768_x_at) / Fold change /veh PODN (11730768_x_at) / RFU LINC00158 (11744669_a_at) / Fold change /veh LINC00158 (11744669_a_at) / RFU DUSP10 (11751237_a_at) / Fold change /veh DUSP10 (11751237_a_at) / RFU ID3 (11757404_x_at) / Fold change /veh ID3 (11757404_x_at) / RFU PLEKHG5 (11737974_s_at) / Fold change /veh PLEKHG5 (11737974_s_at) / RFU LRRC4B (11730491_at) / Fold change /veh LRRC4B (11730491_at) / RFU GIMAP4 (11747438_a_at) / Fold change /veh GIMAP4 (11747438_a_at) / RFU KRT8 (11758183_x_at) / Fold change /veh KRT8 (11758183_x_at) / RFU CNN1 (11734310_a_at) / Fold change /veh CNN1 (11734310_a_at) / RFU VPS37D (11726825_at) / Fold change /veh VPS37D (11726825_at) / RFU C10orf10 (11716522_x_at) / Fold change /veh C10orf10 (11716522_x_at) / RFU KIR2DL2 /// KIR2DL4 /// KIR2DL5A /// KIR2DL5B /// KIR2DS1 /// KIR2DS2 /// KIR2DS3 /// KIR2DS4 /// KIR3DL3 /// KIR3DL3 /// KIR3DS1 (11738374_at) / Fold change /veh KIR2DL2 /// KIR2DL4 /// KIR2DL5A /// KIR2DL5B /// KIR2DS1 /// KIR2DS2 /// KIR2DS3 /// KIR2DS4 /// KIR3DL3 /// KIR3DL3 /// KIR3DS1 (11738374_at) / RFU C1QL1 (11718748_at) / Fold change /veh C1QL1 (11718748_at) / RFU TMPRSS4 (11747572_a_at) / Fold change /veh TMPRSS4 (11747572_a_at) / RFU HAMP (11756126_x_at) / Fold change /veh HAMP (11756126_x_at) / RFU RNFT2 (11725882_a_at) / Fold change /veh RNFT2 (11725882_a_at) / RFU NR4A2 (11747474_a_at) / Fold change /veh NR4A2 (11747474_a_at) / RFU ABCC12 (11746883_a_at) / Fold change /veh ABCC12 (11746883_a_at) / RFU TMEM136 (11760407_x_at) / Fold change /veh TMEM136 (11760407_x_at) / RFU CLDN22 /// WWC2 (11732394_at) / Fold change /veh CLDN22 /// WWC2 (11732394_at) / RFU HLA-DPB1 (11760878_x_at) / Fold change /veh HLA-DPB1 (11760878_x_at) / RFU SPINT1 (11716480_a_at) / Fold change /veh SPINT1 (11716480_a_at) / RFU GAP43 (11754022_s_at) / Fold change /veh GAP43 (11754022_s_at) / RFU A4GNT (11735810_at) / Fold change /veh A4GNT (11735810_at) / RFU PRB3 (11715151_x_at) / Fold change /veh PRB3 (11715151_x_at) / RFU TUBB4B (11761932_at) / Fold change /veh TUBB4B (11761932_at) / RFU CAPN14 (11732068_a_at) / Fold change /veh CAPN14 (11732068_a_at) / RFU TMCC2 (11721928_a_at) / Fold change /veh TMCC2 (11721928_a_at) / RFU IRGQ (11745062_a_at) / Fold change /veh IRGQ (11745062_a_at) / RFU FAM174B (11720279_a_at) / Fold change /veh FAM174B (11720279_a_at) / RFU TMPRSS4 (11748680_a_at) / Fold change /veh TMPRSS4 (11748680_a_at) / RFU FAM212B (11763350_a_at) / Fold change /veh FAM212B (11763350_a_at) / RFU PLEKHG5 (11743358_a_at) / Fold change /veh PLEKHG5 (11743358_a_at) / RFU ZSCAN30 (11745921_a_at) / Fold change /veh ZSCAN30 (11745921_a_at) / RFU CMKLR1 (11741424_a_at) / Fold change /veh CMKLR1 (11741424_a_at) / RFU LOC101060620 /// MAPK8IP1 (11723275_at) / Fold change /veh LOC101060620 /// MAPK8IP1 (11723275_at) / RFU SPTSSB (11747773_x_at) / Fold change /veh SPTSSB (11747773_x_at) / RFU PRSS12 (11739890_at) / Fold change /veh PRSS12 (11739890_at) / RFU BIN1 (11741810_x_at) / Fold change /veh BIN1 (11741810_x_at) / RFU WNT11 (11732464_a_at) / Fold change /veh WNT11 (11732464_a_at) / RFU C10orf10 (11716521_a_at) / Fold change /veh C10orf10 (11716521_a_at) / RFU C5orf56 (11738089_at) / Fold change /veh C5orf56 (11738089_at) / RFU CYB561 (11721691_x_at) / Fold change /veh CYB561 (11721691_x_at) / RFU ANKRD19P (11752326_a_at) / Fold change /veh ANKRD19P (11752326_a_at) / RFU OR2T12 /// OR2T33 /// OR2T8 (11738714_s_at) / Fold change /veh OR2T12 /// OR2T33 /// OR2T8 (11738714_s_at) / RFU VCAN (11748164_a_at) / Fold change /veh VCAN (11748164_a_at) / RFU JSRP1 (11732532_at) / Fold change /veh JSRP1 (11732532_at) / RFU KRTAP10-11 (11738290_x_at) / Fold change /veh KRTAP10-11 (11738290_x_at) / RFU MYO3A (11730013_a_at) / Fold change /veh MYO3A (11730013_a_at) / RFU EBF3 (11725865_a_at) / Fold change /veh EBF3 (11725865_a_at) / RFU CAMK2N1 (11719241_x_at) / Fold change /veh CAMK2N1 (11719241_x_at) / RFU C5orf56 (11738088_a_at) / Fold change /veh C5orf56 (11738088_a_at) / RFU OLFML3 (11715873_a_at) / Fold change /veh OLFML3 (11715873_a_at) / RFU LOC100653217 /// NTM (11731650_a_at) / Fold change /veh LOC100653217 /// NTM (11731650_a_at) / RFU MAPK11 (11762145_a_at) / Fold change /veh MAPK11 (11762145_a_at) / RFU FIZ1 (11724087_x_at) / Fold change /veh FIZ1 (11724087_x_at) / RFU OASL (11726364_x_at) / Fold change /veh OASL (11726364_x_at) / RFU SOX15 (11748057_x_at) / Fold change /veh SOX15 (11748057_x_at) / RFU CD79A (11719716_a_at) / Fold change /veh CD79A (11719716_a_at) / RFU HIST1H1D (11736915_at) / Fold change /veh HIST1H1D (11736915_at) / RFU CASKIN2 (11723855_a_at) / Fold change /veh CASKIN2 (11723855_a_at) / RFU LOC730098 (11760151_x_at) / Fold change /veh LOC730098 (11760151_x_at) / RFU OR4N2 (11742367_at) / Fold change /veh OR4N2 (11742367_at) / RFU PRRT2 (11749266_a_at) / Fold change /veh PRRT2 (11749266_a_at) / RFU SNX32 (11753110_a_at) / Fold change /veh SNX32 (11753110_a_at) / RFU CDHR5 (11726645_a_at) / Fold change /veh CDHR5 (11726645_a_at) / RFU RCAN1 (11760418_a_at) / Fold change /veh RCAN1 (11760418_a_at) / RFU FAM167A (11723789_a_at) / Fold change /veh FAM167A (11723789_a_at) / RFU FAM26E (11764081_at) / Fold change /veh FAM26E (11764081_at) / RFU ISYNA1 (11749810_s_at) / Fold change /veh ISYNA1 (11749810_s_at) / RFU ACY1 (11761880_at) / Fold change /veh ACY1 (11761880_at) / RFU 11764098_at / Fold change /veh 11764098_at / RFU SAMD14 (11745864_x_at) / Fold change /veh SAMD14 (11745864_x_at) / RFU NPB (11741838_a_at) / Fold change /veh NPB (11741838_a_at) / RFU TMPRSS6 (11731388_a_at) / Fold change /veh TMPRSS6 (11731388_a_at) / RFU KRTAP10-2 (11738614_at) / Fold change /veh KRTAP10-2 (11738614_at) / RFU ARHGAP8 /// PRR5-ARHGAP8 (11727945_x_at) / Fold change /veh ARHGAP8 /// PRR5-ARHGAP8 (11727945_x_at) / RFU KRTAP5-7 /// NADSYN1 (11734609_at) / Fold change /veh KRTAP5-7 /// NADSYN1 (11734609_at) / RFU RASL12 (11751679_a_at) / Fold change /veh RASL12 (11751679_a_at) / RFU CDKN2B (11736163_a_at) / Fold change /veh CDKN2B (11736163_a_at) / RFU PRF1 (11729649_at) / Fold change /veh PRF1 (11729649_at) / RFU, ZNF638 /// ZNF638-IT1 / Fold change vs veh, ZNF638 /// ZNF638-IT1 / RFU, PANK3 / Fold change vs veh, PANK3 / RFU, SH3YL1 / Fold change vs veh, SH3YL1 / RFU, ZEB2 / Fold change vs veh, ZEB2 / RFU, NRIP1 / Fold change vs veh, NRIP1 / RFU, PTTG1IP / Fold change vs veh, PTTG1IP / RFU, CAPN2 / Fold change vs veh, CAPN2 / RFU, MED14 / Fold change vs veh, MED14 / RFU, SNORA58 / Fold change vs veh, SNORA58 / RFU, C1orf63 / Fold change vs veh, C1orf63 / RFU, LRRFIP1 / Fold change vs veh, LRRFIP1 / RFU, NDUFAF7 / Fold change vs veh, NDUFAF7 / RFU, SLC12A2 / Fold change vs veh, SLC12A2 / RFU, IBTK / Fold change vs veh, IBTK / RFU, ESF1 / Fold change vs veh, ESF1 / Fold change vs veh, TMEM50B / RFU, TAOK1 / Fold change vs veh, TAOK1 / RFU, ACBD3 / Fold change vs veh, ACBD3 / RFU, TMA16 / Fold change vs veh, TMA16 / RFU, RWDD3 / Fold change vs veh, RWDD3 / RFU, BCAT1 / Fold change vs veh, BCAT1 / RFU, EDEM3 / Fold change vs veh, EDEM3 / RFU, TMEM33 / Fold change vs veh, TMEM33 / RFU, WDR75 / Fold change vs veh, WDR75 / RFU, AHCTF1 / Fold change vs veh, AHCTF1 / RFU, TFRC / Fold change vs veh, TFRC / RFU, ZDHHC17 / Fold change vs veh, ZDHHC17 / RFU, NOM1 / Fold change vs veh, NOM1 / RFU, ARL8B / Fold change vs veh, ARL8B / RFU, ZBTB11 / Fold change vs veh, ZBTB11 / RFU, TAMM41 / Fold change vs veh, TAMM41 / RFU, KIAA1704 /// LOC100996395 / Fold change vs veh, KIAA1704 /// LOC100996395 / RFU, ING1 / Fold change vs veh, ING1 / RFU, TRMT61B / Fold change vs veh, TRMT61B / RFU, FUBP3 / Fold change vs veh, FUBP3 / RFU, TP53 / Fold change vs veh, TP53 / RFU, TNKS2 / Fold change vs veh, TNKS2 / RFU, ZFP14 / Fold change vs veh, ZFP14 / RFU, ACTR2 / Fold change vs veh, ACTR2 / RFU, PPP3R1 / Fold change vs veh, PPP3R1 / RFU, PIK3R1 / Fold change vs veh, PIK3R1 / RFU, HNRNPA1 / Fold change vs veh, HNRNPA1 / RFU, RNF170 / Fold change vs veh, RNF170 / RFU, ZNF28 / Fold change vs veh, ZNF28 / RFU, RNGTT / Fold change vs veh, RNGTT / RFU, OGT / Fold change vs veh, OGT / RFU, BRD1 / Fold change vs veh, BRD1 / RFU, MARS / Fold change vs veh, MARS / RFU, ZNF655 / Fold change vs veh, ZNF655 / RFU, FAHD1 / Fold change vs veh, FAHD1 / RFU, BDP1 / Fold change vs veh, BDP1 / RFU, LRRCC1 / Fold change vs veh, LRRCC1 / RFU, ARID1A / Fold change vs veh, ARID1A / RFU, ZNF146 / Fold change vs veh, ZNF146 / RFU, ZNF330 / Fold change vs veh, ZNF330 / RFU, GPN3 / Fold change vs veh, GPN3 / RFU, C9orf123 / Fold change vs veh, C9orf123 / RFU, N4BP2L2 / Fold change vs veh, N4BP2L2 / RFU, ARFIP1 / Fold change vs veh, ARFIP1 / RFU, FAM179B / Fold change vs veh, FAM179B / RFU, BCL10 / Fold change vs veh, BCL10 / RFU, UHRF1BP1L / Fold change vs veh, UHRF1BP1L / RFU, BET1 / Fold change vs veh, BET1 / RFU, CNOT2 / Fold change vs veh, CNOT2 / RFU, ZNF268 / Fold change vs veh, ZNF268 / Fold change vs veh, ZNF507 / RFU, DGCR2 / Fold change vs veh, DGCR2 / RFU, WDSUB1 / Fold change vs veh, WDSUB1 / Fold change vs veh, HSP90B1 /// MIR3652 / RFU, ADSS / Fold change vs veh, ADSS / RFU, GK / Fold change vs veh, GK / RFU, ZNF148 / Fold change vs veh, ZNF148 / RFU, TAF9 / Fold change vs veh, TAF9 / RFU, SLC1A5 / Fold change vs veh, SLC1A5 / RFU, SLMO2 / Fold change vs veh, SLMO2 / RFU, ABCC4 / Fold change vs veh, ABCC4 / RFU, LOC101060439 /// RAP1B / Fold change vs veh, LOC101060439 /// RAP1B / RFU, RFX7 / Fold change vs veh, RFX7 / RFU, GTPBP10 / Fold change vs veh, GTPBP10 / RFU, CNEP1R1 / Fold change vs veh, CNEP1R1 / RFU, BIVM-ERCC5 /// ERCC5 / Fold change vs veh, BIVM-ERCC5 /// ERCC5 / RFU, ILF3 / Fold change vs veh, ILF3 / RFU 11762660_at / Fold change /veh 11762660_at / RFU VCAN (11757783_s_at) / Fold change /veh VCAN (11757783_s_at) / RFU DDX43 (11728927_at) / Fold change /veh DDX43 (11728927_at) / RFU KRT8 (11758188_x_at) / Fold change /veh KRT8 (11758188_x_at) / RFU NKD1 (11759106_at) / Fold change /veh NKD1 (11759106_at) / RFU SRD5A1 (11742802_a_at) / Fold change /veh SRD5A1 (11742802_a_at) / RFU TPSAB1 /// TPSB2 (11721975_s_at) / Fold change /veh TPSAB1 /// TPSB2 (11721975_s_at) / RFU GSTM3 (11746129_a_at) / Fold change /veh GSTM3 (11746129_a_at) / RFU IL23R (11737362_x_at) / Fold change /veh IL23R (11737362_x_at) / RFU TMEM51 (11727254_a_at) / Fold change /veh TMEM51 (11727254_a_at) / RFU PIWIL2 (11732686_x_at) / Fold change /veh PIWIL2 (11732686_x_at) / RFU ORM1 (11744905_x_at) / Fold change /veh ORM1 (11744905_x_at) / RFU CCDC152 (11743942_at) / Fold change /veh CCDC152 (11743942_at) / RFU ECM1 (11717891_a_at) / Fold change /veh ECM1 (11717891_a_at) / RFU IL23R (11748794_a_at) / Fold change /veh IL23R (11748794_a_at) / RFU TNFAIP8L3 (11732012_x_at) / Fold change /veh TNFAIP8L3 (11732012_x_at) / RFU MBOAT4 (11741988_at) / Fold change /veh MBOAT4 (11741988_at) / RFU 11764193_at / Fold change /veh 11764193_at / RFU TMEM53 (11763286_at) / Fold change /veh TMEM53 (11763286_at) / RFU MAGEB2 (11727129_at) / Fold change /veh MAGEB2 (11727129_at) / RFU TMEM200A (11744735_a_at) / Fold change /veh TMEM200A (11744735_a_at) / RFU CCDC152 (11751479_a_at) / Fold change /veh CCDC152 (11751479_a_at) / RFU FAM211A (11726209_a_at) / Fold change /veh FAM211A (11726209_a_at) / RFU RGS16 (11746705_a_at) / Fold change /veh RGS16 (11746705_a_at) / RFU VCAN (11755009_s_at) / Fold change /veh VCAN (11755009_s_at) / RFU RHOB (11743442_s_at) / Fold change /veh RHOB (11743442_s_at) / RFU RGS16 (11720943_a_at) / Fold change /veh RGS16 (11720943_a_at) / RFU RGS16 (11720944_at) / Fold change /veh RGS16 (11720944_at) / RFU, VPS4B / Fold change vs veh, VPS4B / RFU, CREB1 / Fold change vs veh, CREB1 / RFU, DNAJC13 / Fold change vs veh, DNAJC13 / RFU, GNAQ / Fold change vs veh, GNAQ / RFU, CDK5R1 / Fold change vs veh, CDK5R1 / RFU, ZRANB3 / Fold change vs veh, ZRANB3 / RFU, CUL4A / Fold change vs veh, CUL4A / RFU, CCNY / Fold change vs veh, CCNY / RFU, UFL1 / Fold change vs veh, UFL1 / RFU, COG3 / Fold change vs veh, COG3 / RFU, DIAPH2 / Fold change vs veh, DIAPH2 / RFU, SKA2 / Fold change vs veh, SKA2 / RFU, AFF3 / Fold change vs veh, AFF3 / RFU, LMF1 / Fold change vs veh, LMF1 / RFU, IPO11 / Fold change vs veh, IPO11 / RFU, DFFB / Fold change vs veh, DFFB / RFU, FOXP1 / Fold change vs veh, FOXP1 / RFU, CARD8 / Fold change vs veh, CARD8 / RFU, STRN3 / Fold change vs veh, STRN3 / RFU, ADK / Fold change vs veh, ADK / RFU, RASSF2 / Fold change vs veh, RASSF2 / RFU, WIPF1 / Fold change vs veh, WIPF1 / RFU, LARP1B / Fold change vs veh, LARP1B / RFU, RASA1 / Fold change vs veh, RASA1 / RFU, RB1 / Fold change vs veh, RB1 / RFU, PPFIA1 / Fold change vs veh, PPFIA1 / RFU, MAT2A / Fold change vs veh, MAT2A / RFU, CCT5 / Fold change vs veh, CCT5 / RFU, WDR92 / Fold change vs veh, WDR92 / RFU, CUX1 / Fold change vs veh, CUX1 / RFU, TTC7A / Fold change vs veh, TTC7A / RFU, TMEM135 / Fold change vs veh, TMEM135 / RFU, DEPTOR / Fold change vs veh, DEPTOR / RFU, CPM / Fold change vs veh, CPM / RFU, DNAJB6 / Fold change vs veh, DNAJB6 / RFU, CACNA2D3 / Fold change vs veh, CACNA2D3 / RFU, DTX4 / Fold change vs veh, DTX4 / RFU, TFCP2 / Fold change vs veh, TFCP2 / RFU, GMCL1 /// GMCL1P1 / Fold change vs veh, GMCL1 /// GMCL1P1 / RFU, AEBP2 / Fold change vs veh, AEBP2 / RFU, SNHG1 /// SNORD22 /// SNORD25 /// SNORD26 /// SNORD27 /// SNORD28 /// SNORD29 /// SNORD31 / Fold change vs veh, SNHG1 /// SNORD22 /// SNORD25 /// SNORD26 /// SNORD27 /// SNORD28 /// SNORD29 /// SNORD31 / Fold change (Aza/veh), C12orf56 (ProbeSet 11735607_a_at) / Fold change (ACY-1035/veh), C12orf56 (ProbeSet 11735607_a_at) / Fold change (Aza/veh), FGFR1OP (ProbeSet 11751329_s_at) / Fold change (ACY-1035/veh), FGFR1OP (ProbeSet 11751329_s_at) / Fold change (Aza/veh), VPS36 (ProbeSet 11739960_a_at) / Fold change (ACY-1035/veh), VPS36 (ProbeSet 11739960_a_at) / RFU SYPL1 (11715823_x_at) / Fold change /veh SYPL1 (11715823_x_at) / RFU IGFBP7 (11715501_s_at) / Fold change /veh IGFBP7 (11715501_s_at) / RFU REEP3 (11722064_at) / Fold change /veh REEP3 (11722064_at) / RFU IGLL1 (11728026_x_at) / Fold change /veh IGLL1 (11728026_x_at): dose or concentration left out as unconfirmed
Settings: MV-4-11 cells, 48 hours

`Nc1ccc(-c2cccs2)cc1NC(=O)c1ccc2c(c1)cc(C1CC1)n2CCN1CCOCC1` [ACY-1035] was tested. Which “Fold change /veh VCAN (11755009_s_at)” value did it give?
Its value is 1.16.
